In series [1] the test system is apolipoprotein E-deficient C57/B1J (apo E KO) mice. Description: Aortic atherosclerosis quantification (Oil Red O, en face, aortic arch) in ovariectomized apoE KO mice on a high fat diet. The class given is in vivo. Conditions: atherogenic diet 6 weeks, oral dosing in feed, EE 12 μg/kg/d, Examples 3 or 5 at 10 or 25 mg/kg/d, N=12. The procedure: All animal procedures were performed under strict compliance to IACUC guidelines. Four to six-week old female apolipoprotein E-deficient C57/B1J (apo E KO) mice were ovariectomized by the vendor (Taconic) and delivered to Wyeth within 2 days of surgery. The animals were housed in shoe-box cages and were allowed ad lib food and water. After 3 days acclimation, the animals were randomized by weight into 8 groups (N=12 mice per group). The animals were dosed in the feed with the indicated compounds during the entire course of the study. Dosing at the indicated levels was achieved by blending the compounds with a sucrose vehicle (30 g per 2 kg feed) prior to mixing into the feed. Ethinyl estradiol was used as a positive reference compound and was dosed at 12 μg/kg/d. […] The quantity of compound added to the feed was based on the food consumption rate and the body weights of the animals, which was determined every week. […]
Aortic Atherosclerosis Quantification-The mice were euthanized by anesthesia overdose and the vascular tree was perfused first with 2 ml phosphate buffered saline (pH 7.4), then with 2 ml formalin. For quantification of aortic lesions, aortas were carefully isolated and placed in formalin fixative for 48-72 hours before handling. […] The lesions were quantified en face after staining along the aortic arch using the Image-Pro Plus, Media Cybernetics software. […]

A short description of series [2]: Lipoprotein determinations (total cholesterol, VLDL, HDL by FPLC) in ovariectomized apoE KO mice on a high fat diet. The class given is in vivo. As to conditions: atherogenic diet 6 weeks, oral dosing in feed. The procedure:
All animal procedures were performed under strict compliance to IACUC guidelines. Four to six-week old female apolipoprotein E-deficient C57/B1J (apo E KO) mice were ovariectomized by the vendor (Taconic) and delivered to Wyeth within 2 days of surgery. The animals were housed in shoe-box cages and were allowed ad lib food and water. After 3 days acclimation, the animals were randomized by weight into 8 groups (N=12 mice per group). The animals were dosed in the feed with the indicated compounds during the entire course of the study. Dosing at the indicated levels was achieved by blending the compounds with a sucrose vehicle (30 g per 2 kg feed) prior to mixing into the feed. Ethinyl estradiol was used as a positive reference compound and was dosed at 12 μg/kg/d. Other groups of animals were dosed with the compounds of Example 3 or Example 5 at either 10 or 25 mg/kg/d. Control animals received vehicle (sucrose) alone in the feed. The quantity of compound added to the feed was based on the food consumption rate and the body weights of the animals, which was determined every week. The feeders employed prevented any spillage, so that the food consumption rate was accurate. The animals were fed a Casein-based rodent chow meal (Purina #5K96M) for the first week of the study. The animals were then challenged with a casein-based high fat (HF) diet for week 2 to week 7 of the study. The HF diet (#591-A) was prepared by Purina and contained 1.5% cholesterol, 20% fat as cocoa butter and contained no cholic acid. At the end of the study period, the animals were euthanized and plasma samples obtained. The aortas were perfused via the left ventricle first with buffered saline and then with neutral buffered 10% formalin solution.
Lipoprotein Determinations—Total cholesterol and triglycerides were determined using enzymatic methods with commercially available kits from Boehringer Mannheim and Wako Biochemicals, respectively, and analyzed with the Boehringer Mannheim Hitachii 911 Analyzer. Separation and quantitation of plasma lipoproteins were performed using FPLC size fractionation. Briefly, 50-100 μl serum was filtered and injected into Superose 12 and Superose 6 columns connected in series and eluted at a constant flow rate using 0.15 M NaCl. Areas of each curve representing VLDL, LDL and HDL were integrated using Waters Millennium™ software, and each lipoprotein fraction was quantified by multiplying the Total Cholesterol value by the relative percent area of each respective chromatogram peak.

One may read the melting point as the temperature, or range, at which the solid turns liquid.

For the compound `COc1cc(OC)cc(N2CCN(C(=O)[C@](C)(C#N)[C@H](c3ccccc3OC)c3cccc4ccccc34)CC2)c1` [Example 4, (S)-3-[4-(3,5-dimethoxyphenyl)piperazin-1-yl]-2-[(S)-(2-methoxyphenyl)(1-naphthyl)methyl]-2-methyl-3-oxopropanenitrile], the melting point lay within 186 to 188 °C.

As to `CC1c2cc(F)ccc2-c2ccccc2N1S(=O)(=O)c1ccc(O)cc1` (stereo not shown) [Example 3, 4-[(8-Fluoro-6-methylphenanthridin-5(6H)-yl)sulfonyl]phenol], the melting point turned out to be 188 °C. For the same compound, the “extent of aortic fatty streak involvement” value in series [1] is given as “significant decrease”. Moreover, in series [2], the “VLDL-C (FIG. 2)” value is on record as “increase”, the “serum HDL-C (FIG. 2)” value is reported as “significantly lower” and the “serum total cholesterol (FIG. 2)” value is given as “no effect”.

Regarding `COc1ccccc1[C@H](c1cccc2ccccc12)[C@@](C)(C#N)C(=O)N1CCC(c2cccc(C(F)(F)F)c2)CC1` [Example 5, (S,S)-3-(2-methoxyphenyl)-2-methyl-3-(1-naphthyl)-2-({4-[3-(trifluoromethyl)phenyl]piperidin-1-yl}carbonyl)propanenitrile], the “extent of aortic fatty streak involvement” value in series [1] is listed as “significant decrease”. In addition, in series [2], the “VLDL-C (FIG. 2)” value was “increase”, the “serum HDL-C (FIG. 2)” value is recorded as “significantly lower” and the “serum total cholesterol (FIG. 2)” value is recorded as “no effect”.

Values taken from patent publication US20050119324A1, “Methods of treating atherosclerosis using NF-kB inhibitors” (Wyeth, priority 2003, published 2005).
